{"source": "the supplement of paper PMC4314810", "note": "± gives the standard deviation of the averaged measurements.", "data": [{"system": "MCF7", "experiment": "HRG-induced Akt activation (dPAkt = log2 pAkt/Akt HRG-stimulated minus log2 pAkt/Akt basal) (log2 ratio difference); higher = stronger HRG-induced Akt(T308) phosphorylation", "details": "miRNA mimic concentration 10 nM; time after transfection 72 h; heregulin 10 ng/ml; stimulation time 1 h", "outline": "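MCF7 cells were plated […] in 96-well plates and transfected in two biological replicates with a library of 879 miRNA mimics (10 nM final) using Lipofectamine RNAiMax; 72 h later they were stimulated for 1 h with 10 ng/ml heregulin-beta1 or left unstimulated. After fixation in 4% PFA, phospho-Akt(T308) and total Akt were measured by In-Cell Western on an Odyssey, with signals corrected for column-wise fixation decay. Heregulin-induced Akt activation is the stimulated minus unstimulated value of the log ratio of phospho-Akt to total Akt, averaged over replicates. That log ratio is log2(pAkt/Akt).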", "values": [{"sequence": "UCACACCUGCCUCGCCCCCC", "HRG-induced Akt activation (log2)": "1.05 ± 0.31"}, {"sequence": "UCACAGUGAACCGGUCUCUUU", "HRG-induced Akt activation (log2)": "1.04 ± 0.063"}, {"sequence": "UCACCAGCCCUGUGUUCCCUAG", "HRG-induced Akt activation (log2)": "1.69 ± 0.061"}, {"sequence": "UCACUCCUCUCCUCCCGUCUU", "HRG-induced Akt activation (log2)": "1.4 ± 0.36"}, {"sequence": "UCACUGUUCAGACAGGCGGA", "HRG-induced Akt activation (log2)": "2.02 ± 0.07"}, {"sequence": "UCAGAACAAAUGCCGGUUCCCAGA", "HRG-induced Akt activation (log2)": "1.23 ± 0.54"}, {"sequence": "UCAGCAAACAUUUAUUGUGUGC", "HRG-induced Akt activation (log2)": "1.819 ± 0.011"}, {"sequence": "UCAGCUGGCCCUCAUUUC", "HRG-induced Akt activation (log2)": "1.12 ± 0.66"}, {"sequence": "UCAGGCCAGGCACAGUGGCUCA", "HRG-induced Akt activation (log2)": "1.57 ± 0.41"}, {"sequence": "UCAGGCUCAGUCCCCUCCCGAU", "HRG-induced Akt activation (log2)": "1.36 ± 0.046"}, {"sequence": "UCAGUAAAUGUUUAUUAGAUGA", "HRG-induced Akt activation (log2)": "1.671 ± 0.0072"}, {"sequence": "UCAGUGCACUACAGAACUUUGU", "HRG-induced Akt activation (log2)": "0.519 ± 0.1"}, {"sequence": "UCAGUGCAUCACAGAACUUUGU", "HRG-induced Akt activation (log2)": "0.53 ± 0.045"}, {"sequence": "UCAGUGCAUGACAGAACUUGG", "HRG-induced Akt activation (log2)": "1.09 ± 0.14"}, {"sequence": "UCAUAGCCCUGUACAAUGCUGCU", "HRG-induced Akt activation (log2)": "1.697 ± 0.0055"}, {"sequence": "UCAUAUUGCUUCUUUCU", "HRG-induced Akt activation (log2)": "1.79 ± 0.17"}, {"sequence": "UCCAGCAUCAGUGAUUUUGUUG", "HRG-induced Akt activation (log2)": "1.77 ± 0.17"}, {"sequence": "UCCAGUACCACGUGUCAGGGCCA", "HRG-induced Akt activation (log2)": "0.976 ± 0.31"}, {"sequence": "UCCAGUGCCCUCCUCUCC", "HRG-induced Akt activation (log2)": "1.131 ± 0.0093"}, {"sequence": "UCCAUUACACUACCCUGCCUCU", "HRG-induced Akt activation (log2)": "1.37 ± 0.17"}, {"sequence": "UCCCACCGCUGCCACCC", "HRG-induced Akt activation (log2)": "1.98 ± 0.17"}, {"sequence": "UCCCACGUUGUGGCCCAGCAG", "HRG-induced Akt activation (log2)": "1.44 ± 0.14"}, {"sequence": "UCCCCCAGGUGUGAUUCUGAUUU", "HRG-induced Akt activation (log2)": "1.14 ± 0.29"}, {"sequence": "UCCCUGAGACCCUAACUUGUGA", "HRG-induced Akt activation (log2)": "1.35 ± 0.79"}, {"sequence": "UCCCUGAGACCCUUUAACCUGUGA", "HRG-induced Akt activation (log2)": "1.77 ± 0.13"}, {"sequence": "UCCCUGUCCUCCAGGAGCUCACG", "HRG-induced Akt activation (log2)": "1.79 ± 0.13"}, {"sequence": "UCCCUGUUCGGGCGCCA", "HRG-induced Akt activation (log2)": "1.65 ± 0.52"}, {"sequence": "UCCGAGCCUGGGUCUCCCUCUU", "HRG-induced Akt activation (log2)": "1.37 ± 0.23"}, {"sequence": "UCCGGUUCUCAGGGCUCCACC", "HRG-induced Akt activation (log2)": "1.83 ± 0.26"}, {"sequence": "UCCGUCUCAGUUACUUUAUAGC", "HRG-induced Akt activation (log2)": "1.63 ± 0.18"}, {"sequence": "UCCUCUUCUCCCUCCUCCCAG", "HRG-induced Akt activation (log2)": "1.77 ± 0.039"}, {"sequence": "UCCUGCGCGUCCCAGAUGCCC", "HRG-induced Akt activation (log2)": "1.15 ± 0.34"}, {"sequence": "UCCUGUACUGAGCUGCCCCGAG", "HRG-induced Akt activation (log2)": "1.79 ± 0.1"}, {"sequence": "UCCUUCAUUCCACCGGAGUCUG", "HRG-induced Akt activation (log2)": "1.66 ± 0.26"}, {"sequence": "UCCUUCUGCUCCGUCCCCCAG", "HRG-induced Akt activation (log2)": "1.47 ± 0.042"}, {"sequence": "UCGACAGCACGACACUGCCUUC", "HRG-induced Akt activation (log2)": "1.4 ± 0.42"}, {"sequence": "UCGAGGAGCUCACAGUCUAGU", "HRG-induced Akt activation (log2)": "1.71 ± 0.23"}, {"sequence": "UCGCCUCCUCCUCUCCC", "HRG-induced Akt activation (log2)": "1.47 ± 0.17"}, {"sequence": "UCGGAUCCGUCUGAGCUUGGCU", "HRG-induced Akt activation (log2)": "1.88 ± 0.18"}, {"sequence": "UCGGCCUGACCACCCACCCCAC", "HRG-induced Akt activation (log2)": "0.936 ± 0.2"}, {"sequence": "UCGGGGAUCAUCAUGUCACGAGA", "HRG-induced Akt activation (log2)": "1.93 ± 0.17"}, {"sequence": "UCGUACCGUGAGUAAUAAUGCG", "HRG-induced Akt activation (log2)": "1.27 ± 0.031"}, {"sequence": "UCGUGCAUCCCUUUAGAGUGUU", "HRG-induced Akt activation (log2)": "1.6 ± 0.022"}, {"sequence": "UCGUGGCCUGGUCUCCAUUAU", "HRG-induced Akt activation (log2)": "1.03 ± 0.11"}, {"sequence": "UCGUGUCUUGUGUUGCAGCCGG", "HRG-induced Akt activation (log2)": "1.14 ± 0.13"}, {"sequence": "UCGUUUGCCUUUUUCUGCUU", "HRG-induced Akt activation (log2)": "1.46 ± 0.3"}, {"sequence": "UCUACAAAGGAAAGCGCUUUCU", "HRG-induced Akt activation (log2)": "1.02 ± 0.55"}, {"sequence": "UCUACAGUGCACGUGUCUCCAG", "HRG-induced Akt activation (log2)": "1.65 ± 0.062"}, {"sequence": "UCUAGGCUGGUACUGCUGA", "HRG-induced Akt activation (log2)": "1.57 ± 0.13"}, {"sequence": "UCUAGUAAGAGUGGCAGUCGA", "HRG-induced Akt activation (log2)": "1.322 ± 0.0056"}, {"sequence": "UCUAUACAGACCCUGGCUUUUC", "HRG-induced Akt activation (log2)": "1.14 ± 0.18"}, {"sequence": "UCUCACACAGAAAUCGCACCCGU", "HRG-induced Akt activation (log2)": "1.92 ± 0.12"}, {"sequence": "UCUCCCAACCCUUGUACCAGUG", "HRG-induced Akt activation (log2)": "1.51 ± 0.26"}, {"sequence": "UCUCGCUGGGGCCUCCA", "HRG-induced Akt activation (log2)": "1.22 ± 0.36"}, {"sequence": "UCUCUGGAGGGAAGCACUUUCUG", "HRG-induced Akt activation (log2)": "1.33 ± 0.18"}, {"sequence": "UCUCUGGGCCUGUGUCUUAGGC", "HRG-induced Akt activation (log2)": "1.55 ± 0.3"}, {"sequence": "UCUGCAGGGUUUGCUUUGAG", "HRG-induced Akt activation (log2)": "1.07 ± 0.059"}, {"sequence": "UCUGCCCCCUCCGCUGCUGCCA", "HRG-induced Akt activation (log2)": "1.55 ± 0.069"}, {"sequence": "UCUGCUCAUACCCCAUGGUUUCU", "HRG-induced Akt activation (log2)": "1.15 ± 0.24"}]}]}
